This is an account of results in patent publication US12285408B2, “Methods and compositions for the treatment of snake bite” (priority 2021, dated 2025).

The test system of series [1] is SVMP activity of E. ocellatus, E. carinatus, B. asper and B. arietans venoms. Nature of the series: In vitro kinetic fluorogenic SVMP assay (Study 2). Format: biochemical. The source says: FIG. 10. […] (A) SVMP activities of the five viper venoms quantified by fluorogenic assay. The data presented represent mean measurements and SEMs of area under the curves of fluorescent arbitrary units taken from three independent experimental runs. EOC, E. ocellatus; ECAR, E. carinatus; BAS, Bothrops asper, BAR, Bitis arietans; DRUS, Daboia russelii. (B) The effectiveness of metal chelators and peptidomimetic hydroxamate inhibitors at inhibiting the SVMP activity of the various viper venoms. Drug concentrations from 150 μM to 150 nM (highest to lowest dose tested) are presented. The data is expressed as percentage of the venom-only sample (100%, top dashed line). The negative control is presented as an interval (bottom dashed lines) and represents the values recorded in the PBS-only samples (expressed as percentage of venom activity), where the highest and the lowest values in each set of independent experiments are depicted. […] All data represent triplicate independent repeats with SEMs, where each technical repeat represents the mean of n≥2 technical replicates.
We used an in vitro kinetic fluorogenic assay^28 to assess the SVMP bioactivity of each venom and its inhibition by varying concentrations of the four SVMP-inhibitors.
The SVMP assay measuring metalloproteinase activity and the plasma assay measuring coagulation in the presence or absence of venoms and inhibitors were performed as previously described^28. The SVMP assay kinetically measured cleavage of a quenched fluorogenic substrate (ES010, R&D Biosystems) by venom in the presence or absence of inhibitors.
Briefly, 10 μl of the substrate (supplied as a 6.2 mM stock) was used per 5 ml reaction buffer (150 mM NaCl, 50 mM Tris-CI pH 7.5). Reactions consisted of 10 μl of venom±inhibitors in PBS and 90 μl of substrate. Venoms were used at 1 μg/reaction and final inhibitor concentrations ranged from 150 μM to 150 nM. Samples were preincubated for 30 min at 37° C. and pipetted in triplicate into 384-well plates (Greiner). Thereafter, data was collected on an Omega FLUOstar (BMG Labtech) instrument at an excitation wavelength of 320 nm and emission wavelength of 405 nm at 25° C. for 1 h. The areas under the curve (AUCs) in the 0-40 min interval were calculated for each sample using MARS data analysis software v3.31 (BMG Labtech); this time point was chosen as the time where all fluorescence curves had reached a plateau (maximum fluorescence). For comparing venom-only samples, the means of at least three independent experimental runs for each condition, expressed as AUCs (n≥3), were plotted at each inhibitor concentration with standard error of the mean (SEM). To determine inhibitor efficacy, the AUCs for each of the samples that consisted of venom+inhibitors were transformed and expressed as percentages of the venom-only sample (where the venom was 100%). The negative control (PBS only) was also expressed relative to the venom, and the variation in background was presented as an interval delineated by the lowest and highest values in the PBS-only samples across concentrations and inhibitors for a specific venom. […] However, only the latter two concentrations were sufficiently depleted of DMSO for viable use in the assay.

The conditions of series [2]: cited from earlier work.
In series [3] the test system is procoagulant and anticoagulant toxins fractionated from D. russelii venom. The experiment in a line: Nanofractionation of D. russelii venom with plasma coagulation assay. The format is biochemical, Daboia russelii. As to conditions: inhibitor 20 μM to 0.0064 μM. The procedure:
FIG. 12. […] The data is plotted separately for ‘very fast coagulation’, ‘medium coagulation’ and ‘anticoagulation’, based on the slopes of the 0-5 min and 0-20 min readings, and the single endpoint reading at 180 min. The tested inhibitor concentrations are presented alongside the chromatograms. […] The data is presented as the maximal clotting velocity at each concentration, and represents means of triplicate independent repeats with SEMs, where each technical repeat represents the mean of n≥2 technical replicates. The venom-only control (top dashed lines) and the negative control (bottom dashed lines) are presented as intervals and represent the average±SEM observed for the venom-only and PBS controls across all datasets and replicates.
Fifty microlitres of venom solution (D. russelii; 1 mg/ml) was injected into a Shimadzu LC-2010 system with nanofractionation in parallel. Separation was performed on a Waters XBridge reversed-phase C18 column (250×4.6 mm column with 3.5 μm pore-size) at 30° C. The total flow rate of the mobile phase solution was 0.5 ml/min with eluent A (98% H2O, 2% acetonitrile [ACN], 0.1% formic acid [FA]) and eluent B (98% ACN, 2% H2O, 0.1% FA). Liquid chromatography gradients consisted of a linear increase of mobile phase B from 0 to 50% in 20 min, followed by a linear increase to 90% B in 4 min, then isocratic at 90% B for 5 min, after which the percentage of mobile phase B was decreased from 90% to 0% in 1 min, followed by 10 min at 0% B to re-equilibrate. The effluent was split in a 1:9 ratio of which the 10% fraction was sent to a Shimadzu SPD-M20A prominence diode array detector and the 90% fraction was directed to a nanofractionation collector which dispensed the fractions into transparent 384-well plates (F-bottom, rounded square well, polystyrene, without lid, clear, non-sterile; Greiner Bio One, Alphen aan den Rijn, The Netherlands) at a resolution of 6 s/well. […]
The final assay concentrations of the inhibitors tested in the assay were 20 μM, 4 μM, 0.8 μM, 0.16 μM, 0.032 μM and 0.0064 μM. […] The plate was then read immediately for absorbance kinetically for 100 min at 595 nm at 25° C. using a Varioskan™ Flash Multimode Reader (Thermo Fisher Scientific, Ermelo, The Netherlands). The obtained results were normalized by dividing the slope measured in each well by the median of all slope values across the plate, and the processed coagulation chromatograms were plotted to visualize very fast coagulation, medium increased coagulation and anticoagulation, as previously described^37.

For the compound `O=S(=O)(O)CC(S)CS` (centres unmarked) [DMPS, 2,3-dimercapto-1-propanesulfonic acid], the “lowest concentration effective / required to fully inhibit SVMP activities” value in series [1] (concentrations tested 150 μM to 150 nM) was determined as 15 µM. For the same compound, the IC50 in series [1] (range across venoms, 1 μg venom/reaction, read-out: IC50s, inhibition of SVMP activity) was in the range of 290 to 4190 nM.

For `CNC(=O)[C@@H](NC(=O)[C@H](CC(C)C)[C@H](O)C(=O)NO)C(C)(C)C` [marimastat], the “side effects” value in series [2] (single doses of up to 800 mg, bidaily 200 mg for 6.5 days, or 75 mg daily for 28 days) is reported as “no notable side effects”. For the same compound, the “neutralization of SVMP bioactivity” value in series [1] (marimastat 150 nM-150 μM, batimastat […] and 150 nM only) was “complete in vitro neutralization”. In series [3], the “inhibition of anticoagulant fractions of D. russelii venom” value is “not neutralized by this inhibitor at any of the tested concentrations” and the “inhibition of procoagulant fractions of D. russelii venom” value is reported as “effectively inhibited in a dose-dependent manner”.

For `CCc1c(C(=O)C(N)=O)c2c(OCC(=O)O)cccc2n1Cc1ccccc1` [varespladib], the “tolerability” value in series [2] (Phase 1 and 2) was “well tolerated”. In series [2] (Phase 2B, same daily dose, >300 patients for >6 months), the “risk of major adverse cardiovascular events” value is given as “no greater risk of major adverse cardiovascular events”. In addition, the “risk of myocardial infarction” value in series [2] (Phase 3, acute coronary syndrome patients, 500 mg oral daily) is given as “greater risk of myocardial infarction than those receiving placebo”. In series [3], the “inhibition of anticoagulant fractions of D. russelii venom” value was “effectively inhibited the anticoagulant activity” and the “inhibition of procoagulant fractions of D. russelii venom” value is reported as “some inhibitory effect against procoagulant venom toxins, but only at very high doses (20 μM)”.
